The values below come from patent US12319655B2, “RAF kinase inhibitors and methods of use thereof” (Deciphera Pharmaceuticals, LLC, priority 2021, dated 2025).

For orientation: IC50 means the concentration that gives 50% inhibition.

In test [1] the test system is WM3629 cells. The experiment in a line: WM3629 Cell Proliferation Assay (1). Type of test: cell-based. The procedure:
WM3629 Cell Proliferation Assay (1)
WM3629 cells (#WM3629-01-0001) are obtained from Rockland Immunochemicals Inc (Gilbertsville, PA). Briefly, cells were grown in MCDB 153 medium (Sigma, #M7403, St. Louis, MO) supplemented with 20% Leibovitz's L-15 (ThermoFisher #11415-064, Waltham, MA), 2% heat inactivated fetal bovine serum (ThermoFisher, #A3840001, Waltham, MA), 5 μg/mL Insulin (Bovine Pancreas) (Sigma, #10516, St. Louis, MO), 1.68 mM Calcium Chloride (Sigma, #C-34006, St. Louis, MO) and 1% Penicillin/Streptomycin/L-Glutamine (ThermoFisher #10378016, Waltham, MA) at 37° C., 5% CO2, and 95% humidity. Cells are expanded until reaching 70-95% confluency at which point they are subcultured or harvested for assay use. A serial dilution of test compound is dispensed into a 96-well black clear bottom plate in triplicate. Four thousand five hundred cells are added per well in 200 μL complete growth medium in the 96-well plate. Plates are incubated for 67-72 hours at 37° C., 5% CO2, and 95% humidity. At the end of the incubation, 40 μL of a 440 μM solution of resazurin (Sigma, #199303, St. Louis, MO) in PBS is added to each well of the plate and plates are incubated for an additional 6-7 hours at 37° C., 5% CO2, and 95% humidity. Plates are read on a Synergy2 or equivalent reader (Biotek, Winooski VT) using an excitation of 540 nm and an emission of 600 nm. Data is analyzed using Prism software (GraphPad, San Diego, CA) to calculate IC50 values.

Test [2] deals with Miapaca-2 cells. The experiment in a line: MiaPaca-2 Combination Cell proliferation Assay (1) with cobimetinib. The format is cell-based. Particulars: MiaPaca-2 cell proliferation, read-out: MiaPaca-2 Combo (1) IC50.

As to `CNC(=O)c1cc(-c2cncc(-c3cc(NC(=O)c4ccnc(C(C)(C)C#N)c4)ccc3C)c2)ncn1` [Example 235], the values for the IC50 in test [1] and in test [2] were no more than 100 nM and 100 to 500 nM, respectively.
Turning to `Cc1cc(-c2cc(NC(=O)C3CC3)ncn2)cc(-c2cc(NC(=O)c3ccnc(C(C)(C)C#N)c3)ccc2C)c1` [Example 212], the 50% inhibitory concentration (IC50) in test [1] was no more than 100 nM.
Consider `Cc1ccc(NC(=O)c2ccnc(C3(C#N)CC3)c2)cc1-c1nccc(-c2ccnc(NC(=O)C3CC3)c2)n1` [Example 187], for which the IC50 in test [1] is no more than 100 nM.
For the compound `Cc1ccc(NC(=O)c2ccnc(C(C)(C)C#N)c2)cc1-c1cccc(-c2ccnc(NC(=O)C3CC3)c2)c1` [Example 223], the half-inhibitory concentration (IC50) in test [2] is no more than 100 nM.
As for `Cc1ncc(NC(=O)c2ccnc(C(C)(C)C#N)c2)cc1-c1ccnc(-c2ccnc(NC(=O)C3CC3)c2)n1` [Example 193], the IC50 in test [2] is no more than 100 nM.
As to `COC(C)(C)c1cc(C(=O)Nc2cnc(C)c(-c3cccc(-c4cc(NC(=O)C5CC5)ncn4)c3)c2)ccn1` [Example 274], the half-maximal inhibitory concentration (IC50) in test [1] and in test [2] was no more than 100 nM each time.
For `CCOc1cc(-c2cc(NC(=O)c3ccnc(C(F)(F)F)c3)ccc2C)cc(-c2ccnc(NC(=O)C3CC3)c2)n1` [Example 12], the concentration for half-maximal inhibition (IC50) in test [2] lay in the range of 100 to 500 nM.
On the same count and under the same terms, next, `Cc1ccc(NC(=O)c2ccnc(C(C)(C)C#N)c2)cc1-c1cccc(-c2cc(NC(=O)C3(C)CC3)ncn2)c1` [Example 197]: 100 to 500 nM.
As to `CNC(=O)c1cc(-c2cc(-c3cc(NC(=O)c4ccnc(C(C)(C)F)c4)ccc3C)ccn2)ccn1` [Example 214], the IC50 in test [1] is no more than 100 nM; in test [2], 100 to 500 nM.
Consider `Cc1ccc(NC(=O)c2ccnc(C(C)(C)C#N)c2)cc1-c1ccnc(-c2ccnc(NC(=O)C3CC3)c2)n1` [Example 257], for which the concentration for half-maximal inhibition (IC50) in test [2] is no more than 100 nM.
On the same count and under the same terms, for `CNC(=O)c1cc(-c2cc(-c3cc(NC(=O)c4ccnc(C5(C#N)CC5)c4)ccc3C)ccn2)ccn1` [Example 265] the value was 100 to 500 nM; for `Cc1ccc(NC(=O)c2ccnc(C(C)(C)C#N)c2)cc1-c1cnnc(-c2ccnc(NC(=O)C3CC3)c2)c1` [Example 230], no more than 100 nM.
`Cc1ccc(NC(=O)c2ccnc(C(C)(C)C#N)c2)cc1-c1ccnc(-c2ccnc(NC(=O)C3(C#N)CC3)c2)n1` [Example 241]: in test [2], the IC50 lay in the range of 100 to 500 nM.
For the compound `Cc1ccc(NC(=O)c2ccnc(C(C)(C)C#N)c2)cc1-c1cc(-c2ccnc(NC(=O)C3CC3)c2)cnn1` [Example 245], the half-inhibitory concentration (IC50) in test [1] and in test [2] was no more than 100 nM each time.
`CC(=O)Nc1cc(-c2cc(-c3cc(NC(=O)c4ccnc(C(C)(C)C#N)c4)ccc3C)ccn2)ccn1` [Example 19]: the concentration for half-maximal inhibition (IC50) in test [2] is no more than 100 nM.
On the same count and under the same terms, for `Cc1ccc(NC(=O)c2ccnc(C(F)F)c2)cc1-c1ccnc(-c2ccnc(NC(=O)C3CC3)c2)n1` [Example 189] the value was 100 to 500 nM.
As for `Cc1ncc(NC(=O)c2cnn(C(C)(C)C)c2)cc1-c1cccc(-c2cc(NC(=O)C3CC3)ncn2)c1` [Example 279], the 50% inhibitory concentration (IC50) in test [2] is no more than 100 nM.
Turning to `Cc1ncc(NC(=O)c2ccnc(C(C)(C)C#N)c2)cc1-c1cccc(-c2ccnc(NC(=O)C3CC3)c2)c1` [Example 222], the IC50 in test [1] and in test [2] was no more than 100 nM throughout.
In the case of `CC(=O)Nc1cc(-c2cc(-c3cc(NC(=O)c4ccnc(C(F)(F)F)c4)ccc3C)cc(N3CCOCC3)n2)ccn1` [Example 15], in test [2], the IC50 was no more than 100 nM.
Consider `Cc1ncc(NC(=O)c2ccnc(C(C)(C)F)c2)cc1-c1cccc(-c2cc(NC(=O)C3CC3)ncn2)c1` [Example 249], for which the IC50 in test [1] and in test [2] was no more than 100 nM each time.
`Cc1ncc(NC(=O)c2ccnc(C(C)(C)C#N)c2)cc1-c1ccnc(-c2ccnc(NC(=O)C3CC3)c2)c1` [Example 251]: the IC50 in test [2] is no more than 100 nM.
Still for that read-out and setting: next, `COC(=O)Nc1cc(-c2cccc(-c3cc(NC(=O)c4ccnc(C(C)(C)C#N)c4)cnc3C)c2)ncn1` [Example 225]: no more than 100 nM.
For `Cc1ccc(NC(=O)c2ccnc(C3CC3)c2)cc1-c1ccnc(-c2ccnc(NC(=O)C3CC3)c2)n1` [Example 229], the IC50 in test [1] was no more than 100 nM.
On the same count and under the same terms, for `CNC(=O)c1cc(-c2cc(-c3cc(NC(=O)c4ccnc(C(C)(C)OC)c4)ccc3C)ccn2)ccn1` [Example 264] the value was no more than 100 nM.
In the case of `Cc1ccc(NC(=O)c2ccnc(C(C)(C)C#N)c2)cc1-c1cncc(-c2cc(NC(=O)C3CC3)ncn2)c1` [Example 224], the IC50 in test [1] and in test [2] was no more than 100 nM in each case.
`Cc1ccc(NC(=O)c2ccnc(C(C)(C)F)c2)cc1-c1ccnc(-c2ccnc(NC(=O)C3CC3)c2)n1` [Example 186]: the half-inhibitory concentration (IC50) in test [1] was no more than 100 nM.
